From patent publication US8716437B2 (priority 2007, dated 2014)

Assays:
[1] = test system: antiserum to sarafotoxin s6b (anti-S6b); experiment: Phage panning on immobilized antiserum to sarafotoxin s6b; assay type: binding; details: mixture of five ligands, one round of panning
Source text: A mixture of five ligands: (1) kaliotoxin-1; (2) sarafotoxin s6b; (3) Dendroaspis natriuretic peptide (DNP); (4) fasciculin-2; and (5) camel antibody (CVHH); were mixed and panned on purified receptors (KcsA-Kv1.3). The control was immobilized antiserum to sarafotoxin s6b (anti-S6b). Input and output ligands were verified by genotyping. In this system, shown in Table 6, a 3.6-fold enrichment is seen after one-round of panning.

Kv1.1 = molecular target: T1, Kv1.1 (Rattus norvegicus, UniProt P10499); experiment: Two electrode voltage clamp, Xenopus oocytes, Kv1.1; assay type: cell-based
T1 construct: expressed in transfected cells; host or cells: Xenopus laevis oocytes (cRNA injection)
Protocol: (§1) To examine the effect of mokatoxin-1 on activity of potassium ion channels, cDNA encoding Rattus Kv1.1 (NCBI accession number NM_173095), Rattus Kv1.2 (NM_012970), Homo Kv1.3 (NM_002232), or Mus BK (NM_010610) were subcloned into oocyte expression vectors based on PCR3.1 and pGEM. cRNA synthesis was performed with T7 polymerase and the mMessageMachine Kit (Ambion, Austin, Tex.) according to manufacturers instructions. cRNA concentrations were determined spectroscopically. For two electrode voltage clamp recordings oocytes were extracted from Xenopus laevis and defoliculated with Collagenase Type 2 (Worthington, Lakewood, N.J.). Oocytes were maintained in ND91 solution containing 2 mM KCl, 91 mM NaCl, 1 mM MgCl2, 1.8 mM CaCl2, and 5 mM HEPES, pH 7.5, supplemented with 1% Penicillin/Streptomycin (Cellgro, Hemdon, Va.) and 0.1% Gentamycin sulfate (Gibco, Grand Island, N.Y.)) at 16° C. Stage V and VI oocytes were injected with 8 pg to 4 ng cRNA, and currents recorded 1 to 4 days later.
(§2) For dose-response measurements of toxin block of Kv1.1, Kv1,2, or Kv1.3 peak currents were recorded during a 500 ms step to 0 mV from a holding voltage of −100 mV, followed by a 200 ms step to −135 mV every 30 s. To determine the kinetics of toxin block oocytes were held at −100 mV and stepped to the test voltage of 0 mV for 100 ms followed by a 200 ms duration step to −135 mV every 2 s. BK currents were recorded during a 50 ms step to +60 mV from a holding voltage of −80 mV, followed by a 40 ms step to −100 mV every 3 s. The perfusion solution contained 2 mM KCl, 96 mM NaCl, 1 mM MgCl2, 1.8 mM CaCl2, 5 mM HEPES, pH 7.5 and 0.1% fatty acid ultra-free BSA fraction V (Roche Diagnostics Corporation, Indianapolis, Ind.). Data acquisition and processing was performed with an oocyte clamp OC-725B (Warner Instruments Corporation, Hamden, Conn.), pCLAMP (Axon, Sunnyvale, Calif.), IGOR Pro (WaveMetrics, Lake Oswego, Oreg.), and Origin6.1 (OriginLab Corporation, Northampton, Mass.) softwares. The equilibrium dissociation rates (KD) for block of Kv1.1, Kv1.2, and Kv1.3 by mokatoxin-1 were determined by fitting the dose-response data and kon and koff were calculated as described by Goldstein and Miller, 1993 (Biophys J. 1993 65 (4):1613-1619).

guinea pig ileum [2] = details: J Pharmacol Exp Ther. 1999; cited from earlier work
KcsA-Kv1.3 = experiment: Phage panning on purified immobilized KcsA-Kv1.3 (KcsA-1.3); assay type: binding; details: mixture of five ligands
guinea pig ileum [3] = experiment: Spontaneous motility (twitches) of guinea pig ileum strips; details: reference toxins 10 nM; mokatoxin-1 1-100 nM
KcsA-1.3 = experiment: Phage ELISA on immobilized KcsA-1.3; assay type: binding; details: in words
Protocol: Panning was performed, in triplicate, on surfaces without a coating (none), and on immobilized KcsA-Kv1.3 receptors (KcsA-Kv1.3), wild-type KcsA receptors (KcsA-WT), and antiserum to sarafotoxin S6b (anti-S6b). The input ligands per well are 10^9, 10^8, 10^7. The ligands included: sarafotoxin S6b (upper panel FIG. 4), kaliotoxin-1 (KTX, middle row FIG. 4), no ligand helper phages (bottom row FIG. 4).
For each binding determination, 3 wells in a NUNC-Immuno MaxiSorp 96-Well plates were coated overnight at 4° C. with 1 ug of KcsA-1.3 or KcsA in 50 ul of 100 mM NaHCO3, 1 mM DDM, pH 9, then washed once with Tris-HC150 mM, NaCl-150 mM pH7.5 containing 0.1% Tween 20, 1 mM DDM (TBST). Wells were then blocked at room temperature with 200 ul of Tris 50 mM NaCl 150 mM pH 7.5, 1 mM DDM, (TBS) containing 0.5% BSA, then washed once with TBST. For each well, 108-1010 phages were added in 50 ul of TBS containing 0.5% BSA and incubated on a rotary shaker at room temperature for 2 hrs. Following five washes with TBST, 50 ul of anti-phage antibody-peroxidase conjugated TBST with 0.5% BSA was added and incubated on a rotary shaker for 2 hours at room temperature, then washed 5 times with TBST and twice with TBS. Fifty (50) ul of 1 step turbo-TMB-ELISA was added and the reaction is stopped by 50 μl of 2M H2SO4 and the absorbancy was read at 450 nm.

Kv1.3 = Kv1.3 (Homo sapiens, UniProt P22001); experiment: Two electrode voltage clamp, Xenopus oocytes, Kv1.3; assay type: cell-based; set-up: expressed in transfected cells; host or cells: Xenopus laevis oocytes (cRNA injection)
Source text: Thereafter, MK-1 was synthesized. […] The blocking of […] by MK-1 is represented by filled circles; the blocking of Kv1.2 by MK-1 is represented by filled diamonds; and the blocking of Kv1.1 by MK-1 is represented by filled triangles.
as §1, §2

T1 sequence (P10499 whole entry): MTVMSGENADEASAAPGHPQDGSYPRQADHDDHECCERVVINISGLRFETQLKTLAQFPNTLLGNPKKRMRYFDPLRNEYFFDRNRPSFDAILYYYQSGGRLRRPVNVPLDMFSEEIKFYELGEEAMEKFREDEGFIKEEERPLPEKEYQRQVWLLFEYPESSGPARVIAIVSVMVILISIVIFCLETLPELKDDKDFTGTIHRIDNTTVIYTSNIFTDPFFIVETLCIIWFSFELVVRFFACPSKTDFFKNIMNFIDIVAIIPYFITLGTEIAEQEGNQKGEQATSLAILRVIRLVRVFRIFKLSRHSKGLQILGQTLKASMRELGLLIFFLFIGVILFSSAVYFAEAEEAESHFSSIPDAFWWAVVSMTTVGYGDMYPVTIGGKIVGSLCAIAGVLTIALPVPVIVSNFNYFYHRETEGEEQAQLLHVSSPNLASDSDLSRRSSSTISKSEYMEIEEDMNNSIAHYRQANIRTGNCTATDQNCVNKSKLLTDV
Sequence of Kv1.3 (P22001 whole entry): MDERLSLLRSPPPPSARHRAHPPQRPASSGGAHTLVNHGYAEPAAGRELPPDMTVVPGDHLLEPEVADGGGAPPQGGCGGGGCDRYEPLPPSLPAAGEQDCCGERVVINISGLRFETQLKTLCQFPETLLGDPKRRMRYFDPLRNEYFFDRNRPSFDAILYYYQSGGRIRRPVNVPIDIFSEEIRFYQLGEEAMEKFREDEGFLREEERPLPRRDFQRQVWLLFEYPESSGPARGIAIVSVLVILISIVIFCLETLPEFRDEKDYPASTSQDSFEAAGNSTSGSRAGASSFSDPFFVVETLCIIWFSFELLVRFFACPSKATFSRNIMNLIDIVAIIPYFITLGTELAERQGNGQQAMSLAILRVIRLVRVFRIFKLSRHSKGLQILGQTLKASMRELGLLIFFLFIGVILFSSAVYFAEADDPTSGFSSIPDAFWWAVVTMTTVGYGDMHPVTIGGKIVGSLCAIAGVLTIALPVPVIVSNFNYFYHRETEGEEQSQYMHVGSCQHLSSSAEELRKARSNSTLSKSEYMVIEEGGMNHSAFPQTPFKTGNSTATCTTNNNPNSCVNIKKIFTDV

CC[C@H](C)[C@H](NC(=O)[C@H](CCC(=O)O)NC(=O)[C@@H](NC(=O)CN)C(C)C)C(=O)N[C@@H](CC(N)=O)C(=O)N[C@H](C(=O)N[C@@H](CCCCN)C(=O)N[C@H]1CSSC[C@@H]2NC(=O)[C@H](CCCCN)NC(=O)CNC(=O)[C@H](Cc3ccccc3)NC(=O)[C@H](CCCNC(=N)N)NC(=O)[C@H](CCSC)NC(=O)CNC(=O)[C@H](C)NC(=O)[C@H](CC(=O)O)NC(=O)[C@H](CCCCN)NC(=O)[C@@H]3CSSC[C@@H](C(=O)N[C@H](C(=O)N4CCC[C@H]4C(=O)N[C@@H](CCCCN)C(=O)O)[C@@H](C)O)NC(=O)[C@H](Cc4c[nH]cn4)NC(=O)[C@H](CSSC[C@H](NC(=O)[C@H](CCC(N)=O)NC(=O)[C@@H]4CCCN4C(=O)[C@H](CO)NC(=O)CNC(=O)[C@H](CO)NC1=O)C(=O)N[C@@H](CC(C)C)C(=O)N[C@@H](CCCCN)C(=O)N1CCC[C@H]1C(=O)N3)NC(=O)[C@H](CCCCN)NC(=O)[C@H](CCCNC(=N)N)NC(=O)[C@H](CC(N)=O)NC(=O)[C@H](CCSC)NC2=O)C(C)C [KTX, kaliotoxin-1]
Output (% Ligands) Anti-S6b (n = 20) [1]: 0% | IC50 (Kv1.1): 0.1 nM | Koff [s]^−1 (Kv1.1; rKv1.1): 0.009 ± 0.002 [s]^−1 | Kon [M · s]^−1 (Kv1.1; rKv1.1): 30 · 10^6 ± 16 · 10^6 [M · s]^−1 | ileum contractions (guinea pig ileum [2]): contractions | enrichment after one round of panning (KcsA-Kv1.3): 3.6 fold | Output (% Ligands) KcsA-Kv.13 (n = 20) (KcsA-Kv1.3; one round of panning): 100% | induction of twitches in ileum strips (guinea pig ileum [3]): induced twitches | binding of phage to KcsA-1.3 (KcsA-Kv1.3) (KcsA-1.3): specific binding | IC50 (Kv1.3): 0.5 nM | Koff [s]^−1 (Kv1.3; hKv1.3): 0.0070 ± 0.0009 [s]^−1 | Kon [M · s]^−1 (Kv1.3; hKv1.3): 8 · 10^8 ± 1 · 10^8 [M · s]^−1
